Literature values, collected in article PMC9486889 (Japanese Journal of Clinical Oncology, 2022).

How the values were obtained:
[1] = system: HDAC10; conditions: cited from earlier work
[2] = system: HDAC1; conditions: cited from earlier work
[3] = pre-clinical study, no reference given; cited from earlier work

## Nc1cc(F)ccc1NC(=O)c1ccc(CNC(=O)/C=C/c2cccnc2)cc1 [HBI-8000, tucidinostat]
[1]
  Inhibition of HDAC activity: selectively inhibits
[2]
  Inhibition of HDAC activity: selectively inhibits
[3]
  Effect on cardiovascular system including changes in QTc prolongation: did not induce any effect
